According to US20030092757A1, “Favorable modulation of health-related quality of life and health-related quality-adjusted time-to-progression of disease in patients with prostate cancer” (priority 2001, published 2003):

Test system: patients having hormone refractory prostate cancer (HRPCa)
Test: Health-related quality-adjusted time-to-progression (QATTP) of disease, Kaplan-Meier product limit analysis, randomized placebo-controlled study
Type: in vivo, human
Experimental: The health-related QATTP of disease model for this invention expresses progression-free time as an equally preferable amount of time spent in full health. This is achieved by using patient-reported health-related QoL, as measured for the duration of observation or progression-free interval, to weight progression-free time. […] Patients received treatment with 10 mg (N=89) or 2.5 mg (N=95) of atrasentan or placebo (N=104) until experiencing a clinical event indicative of disease progression such as palliative opiate treatment of new bone or visceral pain, palliative radiation treatment of new bone pain, or new tumor growth symptoms requiring intervention or treatment with chemotherapy. Patient-reported health-related QoL data were collected with the EORTC QLQ-30 and the FACT-G and FACT-P, both of which were administered at baseline, at six week intervals and at each patient's final visit. The results from the 10 mg and 2.5 mg treatment groups are reported relative to the placebo group. A patient's transformed domain score and total score from both the EORTC QLQ-30 and FACT were used to weight the time-to-progression outcome data. Transformed domain scores ranged between 0 and 1, so the reported health-related QATTP of disease outcome was never larger than the actual time-to-progression. Each patient's health-related QATTP of disease was computed as the sum of the health-related QoL weights multiplied by the duration for which that patient experienced that health-related QoL. If a patient experienced a clinical event between two health-related QoL assessments, the set of health-related QoL domain scores immediately prior to the event were carried forward to the time of the clinical event. The mean and median health-related QATTP of disease outcomes were then estimated using Kaplan-Meier product limit methodology (Journal of the American Statistical Association, vol. 53, 1958, pp 457-481). The area under a Kaplan-Meier survival curve conveys an estimated mean health-related QATTP of disease. This analysis was applied to both intent-to-treat and per protocol population data. All health-related QATTP of disease comparisons between atrasentan and placebo treatment groups were based on a log-rank test with statistical significance at an α of 0.05. Results of the Kaplan-Meier product limit survival method analysis are reported in TABLE 2 (Intent to Treat) and TABLE 3 (Per Protocol Population). Mean and median health-related QATTP of disease are shown by treatment group. Log-rank tests comparing the differences between treatment groups are also reported.

[1] = EORTC Physical Functioning, 10 mg, intent to treat
[2] = EORTC Physical Functioning, 10 mg, per protocol
[3] = EORTC Role Functioning, 2.5 mg, intent to treat
[4] = EORTC Role Functioning, 2.5 mg, per protocol
[5] = EORTC Role Functioning, 10 mg, intent to treat
[6] = EORTC Role Functioning, 10 mg, per protocol
[7] = EORTC Sleep Disturbance, 2.5 mg, intent to treat
[8] = EORTC Sleep Disturbance, 2.5 mg, per protocol
[9] = EORTC Sleep Disturbance, 10 mg, intent to treat
[10] = EORTC Sleep Disturbance, 10 mg, per protocol
[11] = EORTC Social Functioning, 2.5 mg, intent to treat
[12] = EORTC Social Functioning, 2.5 mg, per protocol
[13] = EORTC Social Functioning, 10 mg, intent to treat
[14] = EORTC Social Functioning, 10 mg, per protocol
[15] = FACT Emotional Well Being, 2.5 mg, intent to treat
[16] = FACT Emotional Well Being, 2.5 mg, per protocol
[17] = FACT Emotional Well Being, 10 mg, intent to treat
[18] = FACT Emotional Well Being, 10 mg, per protocol
[19] = FACT Functional Well Being, 2.5 mg, intent to treat
[20] = FACT Functional Well Being, 2.5 mg, per protocol
[21] = FACT Functional Well Being, 10 mg, intent to treat
[22] = FACT Functional Well Being, 10 mg, per protocol
[23] = FACT Physical Well Being, 2.5 mg, intent to treat
[24] = FACT Physical Well Being, 2.5 mg, per protocol
[25] = FACT Physical Well Being, 10 mg, intent to treat
[26] = FACT Physical Well Being, 10 mg, per protocol
[27] = FACT Social/Family Well Being, 2.5 mg, intent to treat
[28] = FACT Social/Family Well Being, 2.5 mg, per protocol
[29] = FACT Social/Family Well Being, 10 mg, intent to treat
[30] = FACT Social/Family Well Being, 10 mg, per protocol
[31] = FACT Total, 2.5 mg, intent to treat
[32] = FACT Total, 2.5 mg, per protocol
[33] = FACT Total, 10 mg, intent to treat
[34] = FACT Total, 10 mg, per protocol
[35] = FACT-G, 2.5 mg, intent to treat
[36] = FACT-P, 2.5 mg, intent to treat

SMILES: CCCCN(CCCC)C(=O)CN1C[C@H](c2ccc3c(c2)OCO3)[C@@H](C(=O)O)[C@@H]1c1ccc(OC)cc1 [atrasentan, (2R,3R,4S)-2-(4-methoxyphenyl)-4-(1,3-benzodioxol-5-yl)-1-(((N,N-dibutylamino)carbonyl)methyl)pyrrolidine-3-carboxylic acid]
- QATTP of Disease Median (EORTC Physical Functioning, 2.5 mg, per protocol): 124 days
- QATTP of Disease Mean [1]: 164 days
- QATTP of Disease Median [1]: 119 days
- QATTP of Disease Mean [2]: 168 days
- QATTP of Disease Median [2]: 127 days
- QATTP of Disease Mean [3]: 176 days
- QATTP of Disease Median [3]: 128 days
- QATTP of Disease Mean [4]: 185 days
- QATTP of Disease Median [4]: 142 days
- QATTP of Disease Mean [5]: 180 days
- QATTP of Disease Median [5]: 123 days
- QATTP of Disease Mean [6]: 187 days
- QATTP of Disease Median [6]: 128 days
- QATTP of Disease Mean [7]: 172 days
- QATTP of Disease Median [7]: 127 days
- QATTP of Disease Mean [8]: 179 days
- QATTP of Disease Median [8]: 137 days
- QATTP of Disease Mean [9]: 158 days
- QATTP of Disease Median [9]: 123 days
- QATTP of Disease Mean [10]: 162 days
- QATTP of Disease Median [10]: 127 days
- QATTP of Disease Mean [11]: 184 days
- QATTP of Disease Median [11]: 142 days
- QATTP of Disease Mean [12]: 192 days
- QATTP of Disease Median [12]: 156 days
- QATTP of Disease Mean [13]: 190 days
- QATTP of Disease Median [13]: 135 days
- QATTP of Disease Mean [14]: 196 days
- QATTP of Disease Median [14]: 141 days
- QATTP of Disease Mean [15]: 180 days
- QATTP of Disease Median [15]: 133 days
- QATTP of Disease Mean [16]: 188 days
- QATTP of Disease Median [16]: 147 days
- QATTP of Disease Mean [17]: 163 days
- QATTP of Disease Median [17]: 127 days
- QATTP of Disease Mean [18]: 168 days
- QATTP of Disease Median [18]: 131 days
- QATTP of Disease Mean [19]: 161 days
- QATTP of Disease Median [19]: 111 days
- QATTP of Disease Mean [20]: 168 days
- QATTP of Disease Median [20]: 111 days
- QATTP of Disease Mean [21]: 140 days
- QATTP of Disease Median [21]: 98 days
- QATTP of Disease Mean [22]: 144 days
- QATTP of Disease Median [22]: 113 days
- QATTP of Disease Mean [23]: 181 days
- QATTP of Disease Median [23]: 135 days
- QATTP of Disease Mean [24]: 191 days
- QATTP of Disease Median [24]: 148 days
- QATTP of Disease Mean [25]: 184 days
- QATTP of Disease Median [25]: 127 days
- QATTP of Disease Mean [26]: 190 days
- QATTP of Disease Median [26]: 130 days
- QATTP of Disease Mean [27]: 160 days
- QATTP of Disease Median [27]: 126 days
- QATTP of Disease Mean [28]: 169 days
- QATTP of Disease Median [28]: 143 days
- QATTP of Disease Mean [29]: 147 days
- QATTP of Disease Median [29]: 121 days
- QATTP of Disease Mean [30]: 151 days
- QATTP of Disease Median [30]: 126 days
- QATTP of Disease Mean [31]: 166 days
- QATTP of Disease Median [31]: 125 days
- QATTP of Disease Mean [32]: 174 days
- QATTP of Disease Median [32]: 135 days
- QATTP of Disease Mean [33]: 152 days
- QATTP of Disease Median [33]: 117 days
- QATTP of Disease Mean [34]: 157 days
- QATTP of Disease Median [34]: 127 days
- QATTP of Disease Mean [35]: 172 days
- QATTP of Disease Median [35]: 129 days
- QATTP of Disease Mean (FACT-G, 2.5 mg, per protocol): 180 days
- QATTP of Disease Median (FACT-G, 2.5 mg, per protocol): 143 days
- QATTP of Disease Mean (FACT-G, 10 mg, intent to treat): 160 days
- QATTP of Disease Median (FACT-G, 10 mg, intent to treat): 123 days
- QATTP of Disease Mean (FACT-G, 10 mg, per protocol): 165 days
- QATTP of Disease Median (FACT-G, 10 mg, per protocol): 130 days
- QATTP of Disease Mean [36]: 152 days
- QATTP of Disease Median [36]: 115 days
- QATTP of Disease Mean (FACT-P, 2.5 mg, per protocol): 160 days
- QATTP of Disease Median (FACT-P, 2.5 mg, per protocol): 117 days
- QATTP of Disease Mean (FACT-P, 10 mg, intent to treat): 135 days
- QATTP of Disease Median (FACT-P, 10 mg, intent to treat): 107 days
- QATTP of Disease Mean (FACT-P, 10 mg, per protocol): 139 days
- QATTP of Disease Median (FACT-P, 10 mg, per protocol): 111 days
- health-related QATTP over placebo (both 10 mg and 2.5 mg, per protocol population, after adjusting for health-related QoL effects): longer
- mean health-related QATTP's of disease (data in TABLE 3, both 10 mg and 2.5 mg treatment groups): both delays and improvement
- differences in the QATTP across treatment groups (intent-to-treat population): no statistically significant differences
